{"source": "patent US20110021429A1", "about": "“Renoprotection by growth hormone-releasing hormone and agonists” (priority 2007, published 2011)", "key": {"[1]": {"tested_on": "CIC-K1 mRNA", "assay": "CIC-K1 mRNA levels by real-time RT-PCR in purified thin limb cells after in vivo sc GHRH", "design": "species or system rat", "conditions": "1 mg/kg BW/day sc, 2 days"}, "[2]": {"tested_on": "GHRH-R mRNA", "assay": "GHRH-R mRNA levels by real-time RT-PCR in purified thin limb cells after in vivo sc GHRH", "design": "species or system rat", "conditions": "2 days; for GHRH-R mRNA levels: 1 mg/kg BW/day sc", "experimental": "(§1) Two-month-old male Sprague Dawley rats (Charles River Canada, St-Constant, QC) were kept in temperature- (22° C.), humidity- (65%) and lighting- (12h cycles; lights on at 0700 h) controlled rooms and had free access to standard rat chow (2018 Tecklad global 18% protein rodent diet, containing 0.23% Na^+ and 0.4% Cl^−; Harlan Tecklad, Madison, Wis.) and tap water. Rats were acclimatized ≈3 days before going on a high-NaCl diet or water deprivation. Rats fed the custom-made high-NaCl diet for 2, 7 or 14 (8% NaCl; Harlan Tecklad) were compared to rats fed the custom-made control diet (0.3% NaCl; Harlan Tecklad). They had free access to water. Rats deprived of water for 3 or 5 days had free access to 2018 Tecklad rat chow. Rats used in the first series of experiments, to quantify GHRH-R mRNA levels following a 8%-NaCl diet or a water deprivation, were housed individually in metabolic cages for the entire duration of intervention. Body weight (BW), food and water intakes, and urine volume were recorded daily, and Na^+ levels were analyzed on the last 24h urine sample before sacrifice. Rats used in the 8%-NaCl diet/GHRH study were housed individually in plastic cages and BW and food intake were recorded daily. Rats were sacrificed in a block-design fashion between 0900-1130 h, by rapid decapitation. Pituitaries, kidneys and livers were excised immediately and anterior pituitaries and renal medullas dissected out. Tissues were snap-frozen in liquid nitrogen and stored at −80° C. until RNA extraction. […]\nTotal RNA from purified thin limb cells was extracted with TRIzol. […] Reverse transcription of 2 μg total RNA was performed using the SuperScript™ II RT kit (Invitrogen) and random hexamer primers, according to the manufacturer's protocol, including RNAse H treatement. mRNA levels of rat GHRH-R and rat GAPDH (internal control) were determined in separate tubes, by real-time PCR, using a 1/150 (GHRH-R) and 1/300 (GAPDH) dilution of the RT product and the reagents from the Quantitect™ SYBR® Green PCR kit (Qiagen, Mississauga, ON, CA), according to the manufacturer's recommendation. […]"}, "[3]": {"target": "T1, GHRH-R (Rattus norvegicus, UniProt Q02644)", "T1 construct": "endogenous in cells; host or cells: freshly dispersed semi-purified thin limb cells of Henle's loop from the renal medulla of 2-month-old male Sprague Dawley rats", "T1 sequence (Q02644 53-423 isoform Q02644-2)": "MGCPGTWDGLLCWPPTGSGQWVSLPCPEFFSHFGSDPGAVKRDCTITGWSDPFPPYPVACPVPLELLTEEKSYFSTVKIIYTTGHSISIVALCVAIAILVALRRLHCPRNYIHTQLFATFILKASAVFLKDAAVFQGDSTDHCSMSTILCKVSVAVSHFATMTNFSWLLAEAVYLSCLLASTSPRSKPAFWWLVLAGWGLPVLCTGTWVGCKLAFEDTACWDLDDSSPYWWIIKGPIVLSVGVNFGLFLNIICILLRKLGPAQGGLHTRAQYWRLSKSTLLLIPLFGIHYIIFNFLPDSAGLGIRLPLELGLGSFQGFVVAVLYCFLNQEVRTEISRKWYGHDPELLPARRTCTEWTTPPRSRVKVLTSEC", "assay": "GHRH-induced intracellular cAMP production in freshly dispersed semi-purified thin limb cells (EIA)", "assay_type": "cell-based", "experimental": "Cell dispersion of minced medullas to obtain semi-purified thin limb cells was performed as previously described.^33 These cells were used immediately for in vitro determination of basal and rGHRH(1-29)NH2-induced cAMP levels or purified by differential centrifugation for immunocytochemistry, using a continuous gradient of Nycodenz. The gradient was prepared as described by Grupp et al.^55 and thin limb cells were recovered in fraction I of the gradient after centrifugation at 1500 g (16° C., 45 min) and washed twice in HEPES-Ringer buffer (430 g, 16° C., 10 min). Cell viability, assessed by the Trypan Blue exclusion method, was around 95%. When purified thin limb cells were cultured, isolation and purification steps were performed under sterile conditions and media containing antibiotics.\nSensitivity to GHRH was assessed in freshly semi-purified thin limb cells^33 from rats fed a 8%-NaCl diet for 2, 7 or 14 days or the control diet. […] Supernatants were used to quantify immunoreactive cAMP levels (non-acetylated method). Pellets were kept frozen for determination of protein content.^59 Optical densities were measured at 450 nm, using a microplate reader (Bio-Rad, model 3550). […]"}, "[4]": {"assay": "Body weight and food intake of rats on 8%-NaCl diet injected with GHRH", "assay_type": "in vivo, rat", "conditions": "2-day 8%-NaCl diet, injected with GHRH or saline", "experimental": "as §1, with “decapitation.” for “decapitation. Pituitaries, kidneys and livers were excised immediately and anterior pituitaries and renal medullas dissected out. Tissues were snap-frozen in liquid nitrogen and stored at −80° C. until RNA extraction.”"}, "[5]": {"tested_on": "anterior pituitary GHRH-R mRNA", "assay": "Anterior pituitary GHRH-R mRNA levels after in vivo GHRH", "design": "species or system rat", "conditions": "2-day in vivo GHRH", "experimental": "as §1, with “Rats deprived of water for 3 or 5 days had free access to 2018 Tecklad rat chow.” left out, “daily.” for “daily. Rats were sacrificed in a block-design fashion between 0900-1130 h, by rapid decapitation. Pituitaries, kidneys and livers were excised immediately and anterior pituitaries and renal medullas dissected out. Tissues were snap-frozen in liquid nitrogen and stored at −80° C. until RNA extraction.”\nTotal RNA was extracted as above. […] Membranes were subsequently washed, exposed to films, stripped and rehybridized with GAPDH 28S probes.^33 Quantification of each GHRH-R mRNA transcript (2.5 and 4 kb), GAPDH mRNA and 28S rRNA levels was performed by densitometry. […]"}, "[6]": {"conditions": "14-day sc administration, cited from earlier work"}, "[7]": {"tested_on": "thin limbs of Henle's loop cells", "assay": "In vivo BrdU immunolabeling (DNA repair/synthesis) in purified thin limb cells", "design": "species or system rat", "conditions": "1 mg/kg BW sc/day, 2 days, 8%-NaCl chow", "experimental": "as §1, with “Rats deprived of water for 3 or 5 days had free access to 2018 Tecklad rat chow.” left out, “daily.” for “daily. Rats were sacrificed in a block-design fashion between 0900-1130 h, by rapid decapitation. Pituitaries, kidneys and livers were excised immediately and anterior pituitaries and renal medullas dissected out. Tissues were snap-frozen in liquid nitrogen and stored at −80° C. until RNA extraction.”\nBrdU immunolabeling (Roche Diagnostics, Laval, QC, CA) was used to quantify DNA repair/synthesis in purified thin limb cells from rat submitted 2 days to a 8%- or 0.3%-NaCl diet and injected with GHRH or saline. […]"}, "[8]": {"assay": "Serum total IGF-1 levels after in vivo GHRH", "design": "species or system rat", "conditions": "high-NaCl fed rats injected with GHRH, 1 mg/kg BW sc/day, 2 days", "experimental": "as §1, with “decapitation.” for “decapitation. Pituitaries, kidneys and livers were excised immediately and anterior pituitaries and renal medullas dissected out. Tissues were snap-frozen in liquid nitrogen and stored at −80° C. until RNA extraction.”"}, "[9]": {"tested_on": "GHRH-R mRNA", "assay": "Renal medulla GHRH-R mRNA levels after in vivo GHRH in high-NaCl fed rats", "design": "species or system rat", "conditions": "high-NaCl fed rats injected with GHRH, 1 mg/kg BW sc/day, 2 days", "experimental": "as §1, with “Rats deprived of water for 3 or 5 days had free access to 2018 Tecklad rat chow.” left out, “daily.” for “daily. Rats were sacrificed in a block-design fashion between 0900-1130 h, by rapid decapitation. Pituitaries, kidneys and livers were excised immediately and anterior pituitaries and renal medullas dissected out. Tissues were snap-frozen in liquid nitrogen and stored at −80° C. until RNA extraction.”\nTotal RNA from medullas and purified descending and ascending thin limb cells was extracted with TRIzol (Invitrogen Canada, Burlington, ON). […] Tissue GHRH-R and GAPDH mRNA and cRNA external standard levels were quantified by densitometry. […]"}}, "note": "No end group written: not given here."}
{"substance": "rGHRH(1-29)NH2 (HADAIFTSSYRRILGQLYARKLLHEIMNR-NH2) [rat growth hormone-releasing hormone fragment 1-29 amide, synthesized in the applicant's laboratory]", "values": [{"measurement": "CIC-K1 mRNA levels", "setting": "[1]; 5 other rats", "result": "without significantly altering"}, {"measurement": "CICK-1 mRNA levels", "setting": "[1]; subgroup of 3 rats", "result": "significantly increased"}, {"measurement": "regulation of renal GHRH-R mRNA levels in thin limb cells", "setting": "[2]; 0.5 mg/kg BW/day sc, healthy rats, P<0.01", "result": "up-regulate"}, {"measurement": "GHRH-R mRNA levels", "setting": "[2]; 5 other rats", "result": "decreased"}, {"measurement": "GHRH-R mRNA levels", "setting": "[2]; subgroup of 3 rats", "result": "significantly increased"}, {"measurement": "decrease of GHRH-induced cAMP production", "setting": "[3]; 1 nM and 100 nM, cells from rats fed 2 days 8%-NaCl chow vs control diet", "result": 1.5, "unit": "fold"}, {"measurement": "loss of sensitivity to GHRH (cAMP production)", "setting": "[3]; cells from rats fed the high-salt diet for 7 or 14 days", "result": "reverted"}, {"measurement": "body weight (BW)", "setting": "[4]", "result": "No change"}, {"measurement": "food intake", "setting": "[4]", "result": "No change"}, {"measurement": "anterior pituitary GHRH-R mRNA levels", "setting": "[5]", "result": "No significant regulatory effect"}, {"measurement": "IGF-I serum levels significantly decreased", "setting": "[6]; 0.5 mg/kg BW/day", "result": "not"}, {"measurement": "IGF-I serum levels", "setting": "[6]; 1 mg/kg BW/day", "result": "significantly decreased"}, {"measurement": "increase in intensity of mitochondrial BrdU immunofluorescence", "setting": "[7]", "result": "≈ 7 times"}, {"measurement": "increase in the number of ascending thin limb cell nuclei and mitochondria immunolabeled to BrdU", "setting": "[7]; vs control groups", "result": 5, "unit": "times"}, {"measurement": "serum total insulin-like growth factor-1 (IGF-1) levels", "setting": "[8]", "result": "not modified"}, {"measurement": "GHRH-R mRNA levels in the renal medulla", "setting": "[9]", "result": "tended to increase"}]}
